Measured values: US9224959B2, “Method for producing a pi-electron conjugated compound” (Ricoh Company, Ltd., priority 2009, dated 2015)

How the values were obtained:
[1] = Evaluation of solubility (saturated solution after reflux and cooling to room temperature); format: physicochemical; conditions: refluxed 10 min, cooled to room temperature, left 16 hours, 0.2 μm PTFE filtered
Procedure: The mixture was further stirred for 1 hour and left to stand for 16 hours, and the supernatant was filtered using a 0.2 μm-PTFE filter, to thereby obtain a saturated solution. The saturated solution was dried under reduced pressure, and the solubility of the precursor in each solvent was calculated.

[2] = carboxylic acid as eliminated component; cited from earlier work

| Compound | Solubility in THF [1] | Solubility in Anisole [1] | Solubility in Chloroform [1] | Solubility in Toluene [1] | Acidity [2] [pKa] |
| --- | --- | --- | --- | --- | --- |
| c1ccc2cc(-c3cc4sc(-c5ccc6ccccc6c5)cc4s3)ccc2c1 [Compound 17] | D (the solubility is less than 0.005% by mass) | D (the solubility is less than 0.005% by mass) | D (the solubility is less than 0.005% by mass) | D (the solubility is less than 0.005% by mass) |  |
| O=C(O)CC(F)(F)F [3,3,3-trifluoropropionic acid] |  |  |  |  | 3.0 |
| CC(C)(C)C(=O)OC1CCC(OC(=O)C(C)(C)C)c2cc(-c3cc4sc(-c5ccc6c(c5)C(OC(=O)C(C)(C)C)CCC6OC(=O)C(C)(C)C)cc4s3)ccc21 (stereo not shown) [Compound 12] | A (the solubility is 0.5% by mass or more) | A (the solubility is 0.5% by mass or more) | A (the solubility is 0.5% by mass or more) | A (the solubility is 0.5% by mass or more) |  |
| c1ccc2cc(-c3cc4cc5sc(-c6ccc7ccccc7c6)cc5cc4s3)ccc2c1 [Compound 18] | D (the solubility is less than 0.005% by mass) | D (the solubility is less than 0.005% by mass) | D (the solubility is less than 0.005% by mass) | D (the solubility is less than 0.005% by mass) |  |
| CC(C)(C)C(=O)O [pivalic acid] |  |  |  |  | 5.0 |
| O=C(CC(F)(F)F)OC1CCC(OC(=O)CC(F)(F)F)c2cc(-c3cc4cc5sc(-c6ccc7c(c6)C(OC(=O)CC(F)(F)F)CCC7OC(=O)CC(F)(F)F)cc5cc4s3)ccc21 (stereo not shown) [Compound 14] | A (the solubility is 0.5% by mass or more) | A (the solubility is 0.5% by mass or more) | A (the solubility is 0.5% by mass or more) | B (the solubility is 0.1% by mass or more to less than 0.5% by mass) |  |
| CCCCCC(=O)O [caproic acid] |  |  |  |  | 4.6 |
| O=C(CC(F)(F)F)OC1CCC(OC(=O)CC(F)(F)F)c2cc(-c3ccc4c(c3)sc3c5ccc(-c6ccc7c(c6)C(OC(=O)CC(F)(F)F)CCC7OC(=O)CC(F)(F)F)cc5sc43)ccc21 (stereo not shown) [Compound 16] | A (the solubility is 0.5% by mass or more) | B (the solubility is 0.1% by mass or more to less than 0.5% by mass) | A (the solubility is 0.5% by mass or more) | B (the solubility is 0.1% by mass or more to less than 0.5% by mass) |  |
| c1ccc2cc(-c3ccc4c(c3)sc3c5ccc(-c6ccc7ccccc7c6)cc5sc43)ccc2c1 [Compound 19] | D (the solubility is less than 0.005% by mass) | D (the solubility is less than 0.005% by mass) | D (the solubility is less than 0.005% by mass) | D (the solubility is less than 0.005% by mass) |  |
| O=C(CC(F)(F)F)OC1CCC(OC(=O)CC(F)(F)F)c2cc(-c3cc4sc(-c5ccc6c(c5)C(OC(=O)CC(F)(F)F)CCC6OC(=O)CC(F)(F)F)cc4s3)ccc21 (stereo not shown) [Compound 13] | A (the solubility is 0.5% by mass or more) | B (the solubility is 0.1% by mass or more to less than 0.5% by mass) | A (the solubility is 0.5% by mass or more) | A (the solubility is 0.5% by mass or more) |  |
